The source of these data is US20250228239A1, “MOLECULES HAVING PESTICIDAL UTILITY, AND INTERMEDIATES, COMPOSITIONS, AND PROCESSES, RELATED THERETO” (priority 2024, published 2025).

SMILES strings stand for the structures. Where two headings read alike, the source gives them in different places.

Type in all cases: in vivo
For assay [1], the system named is Beet Armyworm (Spodoptera exigua, LAPHEG). Briefly: Bioassays on Beet Armyworm (BAW), 128-well diet tray assay. The settings on record: Spodoptera exigua. The method, boiled down: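 Percent larval mortality, averaged across eight wells, scored after five to seven days at 25° C. under 14:10 light-dark. Each well held one to five second instars feeding on diet dosed at 50 μg/cm^2 with compound from 90:10 acetone-water, solvent dried off.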

For assay [2], the system named is Cabbage Looper (Trichoplusia ni, TRIPNI). Briefly: Bioassays on Cabbage Looper (CL), 128-well diet tray assay. The settings on record: Trichoplusia ni. The method, boiled down: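 Percent mortality, averaged across eight replicate wells, after second-instar larvae (1–5 per well) fed for five to seven days on diet dosed at 50 μg/cm^2. Compound was applied in acetone-water 90:10 and dried; trays kept vented at 25° C under 14:10 photoperiod.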

Assay [3] deals with Yellow Fever Mosquito (Aedes aegypti, AEDSAE). The note with it: for YFM rating: Table ABC / ABC-DP rating. The method in brief: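 Mortality after 3 days at room temperature is the read-out, scored well by well and converted to a rating. Test molecules came from 4000 ppm stocks in DMSO, further diluted in 90:10 water/acetone, and were exposed to roughly 1-day-old larvae suspended in liver-powder water.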

Where [4] appears, read: Beet Armyworm, rating class, read-out: BAW.
The mark [5] stands for this setting: Cabbage Looper, rating class, read-out: CL.
The mark [6] stands for this setting: Yellow Fever Mosquito, rating class.
[7] abbreviates: Table ABC: Biological Results, species BAW, read-out: BAW.
The mark [8] stands for this setting: Table ABC: Biological Results, species CL, read-out: CL.
Where [9] appears, read: Table ABC: Biological Results, species YFM.
Setting [10] is: Beet Armyworm, Table ABC / ABC-DP rating, read-out: BAW rating.
Where [11] appears, read: Cabbage Looper, Table ABC / ABC-DP rating, read-out: CL rating.

On to `CCC(=O)Nc1c(F)ccc(NC(=O)c2cc(NC(=O)[C@H]3[C@H](c4cc(Cl)c(Cl)c(Cl)c4)C3(Cl)Cl)ccc2Cl)c1F` [F1654, 2-Chloro-5-((1R,3R)-2,2-dichloro-3-(3,4,5-trichlorophenyl)cyclopropane-1-carboxamido)-N-(2,4-difluoro-3-propionamidophenyl)benzamide], for which the pest or weed control at 50 µg/cm2 in assay [1] (setting [4]) and in assay [2] (setting [5]) was 50 to 100% throughout. In assay [3] (setting [6]), the YFM result is given as “A (80–100)”.

`Nc1c(F)ccc(NC(=O)c2cc(NC(=O)[C@H]3[C@H](c4cccc(I)c4)C3(Cl)Cl)ccc2Cl)c1F` (relative stereo) [F1141, trans-N-(3-Amino-2,4-difluorophenyl)-2-chloro-5-(2,2-dichloro-3-(3-iodophenyl)cyclopropane-1-carboxamido)benzamide]: the pest or weed control at 50 µg/cm2 in assay [1] (setting [7]) and in assay [2] (setting [8]) was 50 to 100% in each case. Further, the YFM entry in assay [3] (setting [9]) was “A (80–100)”.

As for `O=C(Nc1ccc(F)c(NC(=O)C(F)(F)F)c1F)c1cc(NC(=O)[C@H]2[C@H](c3ccc(F)c(C(F)(F)F)c3)C2(Cl)Cl)ccc1Cl` [F1169, 2-chloro-5-((1R,3R)-2,2-dichloro-3-(4-fluoro-3-(trifluoromethyl)phenyl)cyclopropane-1-carboxamido)-N-(2,4-difluoro-3-(2,2,2-trifluoroacetamido)phenyl)benzamide], the pest or weed control at 50 µg/cm2 in assay [1] (setting [7]) and in assay [2] (setting [8]) was 50 to 100% each time. The YFM result in assay [3] (setting [9]) is “A (80–100)”.

As for `O=C(Nc1cc(NC(=O)C(F)(F)F)c(F)cc1F)c1cc(NC(=O)[C@H]2[C@H](c3cc(Cl)c(Cl)c(Cl)c3)C2(Cl)Cl)ccc1F` [F1551, 5-((1R,3R)-2,2-Dichloro-3-(3,4,5-trichlorophenyl)cyclopropane-1-carboxamido)-N-(2,4-difluoro-5-(2,2,2-trifluoroacetamido)phenyl)-2-fluorobenzamide], the pest or weed control at 50 µg/cm2 in assay [1] (setting [4]) and in assay [2] (setting [5]) was 50 to 100% throughout. Moreover, the YFM result in assay [3] (setting [6]) is given as “A (80–100)”.

As for `O=C(Nc1ccc(F)c(NC(=O)C(F)F)c1F)c1cc(NC(=O)[C@H]2[C@H](c3cccc(Cl)c3)C2(Cl)Cl)ccc1Cl` (relative stereo) [F1601, trans-2-Chloro-5-(2,2-dichloro-3-(3-chlorophenyl)cyclopropane-1-carboxamido)-N-(3-(2,2-difluoroacetamido)-2,4-difluorophenyl)benzamide], the pest or weed control at 50 µg/cm2 in assay [1] (setting [4]) and in assay [2] (setting [5]) was 50 to 100% in each case. The YFM entry in assay [3] (setting [6]) is “A (80–100)”.

Take `Cc1cc([C@@H]2[C@H](C(=O)Nc3ccc(Cl)c(C(=O)Nc4ccc(F)cc4F)c3)C2(Cl)Cl)cc(C(F)(F)F)c1F` (relative stereo) [F1067, cis-2-Chloro-5-(2,2-dichloro-3-(4-fluoro-3-methyl-5-(trifluoromethyl)phenyl)cyclopropane-1-carboxamido)-N-(2,4-difluorophenyl)benzamide]: the pest or weed control at 50 µg/cm2 in assay [1] (setting [7]) and in assay [2] (setting [8]) was 50 to 100% in each case. In addition, the YFM entry in assay [3] (setting [9]) was “A (80–100)”.

In the case of `CCCN(C(=O)CC#N)c1c(F)ccc(NC(=O)c2cc(NC(=O)[C@H]3[C@H](c4ccc(F)c(C(F)(F)F)c4)C3(Cl)Cl)ccc2Cl)c1F` [F1841, 2-Chloro-N-(3-(2-cyano-N-propylacetamido)-2,4-difluorophenyl)-5-((1R,3R)-2,2-dichloro-3-(4-fluoro-3-(trifluoromethyl)phenyl)cyclopropane-1-carboxamido)benzamide], the pest or weed control at 50 µg/cm2 in assay [1] (setting [10]) and in assay [2] (setting [11]) was 50 to 100% each time. Besides, in assay [3] (Yellow Fever Mosquito), the YFM rating result was “A (80–100)”.

Turning to `Cc1c(Cl)cc(NC(=O)[C@H]2[C@H](c3ccc(F)c(Cl)c3)C2(Cl)Cl)cc1C(=O)Nc1ccc(F)cc1` (relative stereo) [F1189, trans-3-Chloro-5-(2,2-dichloro-3-(3-chloro-4-fluorophenyl)cyclopropane-1-carboxamido)-N-(4-fluorophenyl)-2-methylbenzamide], the pest or weed control at 50 µg/cm2 in assay [1] (setting [7]) and in assay [2] (setting [8]) was 50 to 100% throughout. Also, the YFM entry in assay [3] (setting [9]) is listed as “A (80–100)”.

For the compound `O=C(Nc1ccc(F)cc1F)c1cc(NC(=O)[C@H]2[C@H](c3ccc(I)cc3)C2(Cl)Cl)ccc1Cl` (relative stereo) [F1087, trans-2-Chloro-5-(2,2-dichloro-3-(4-iodophenyl)cyclopropane-1-carboxamido)-N-(2,4-difluorophenyl)benzamide], the pest or weed control at 50 µg/cm2 in assay [1] (setting [7]) and in assay [2] (setting [8]) was 50 to 100% each time. Besides, the YFM result in assay [3] (setting [9]) is listed as “A (80–100)”.

In the case of `O=C(Nc1ccc(F)c(NC(=O)C(F)F)c1F)c1cc(NC(=O)[C@H]2[C@H](c3ccc(Cl)c(Cl)c3)C2(Cl)Cl)cc(F)c1F` [F1443, 5-((1R,3R)-2,2-Dichloro-3-(3,4-dichlorophenyl)cyclopropane-1-carboxamido)-N-(3-(2,2-difluoroacetamido)-2,4-difluorophenyl)-2,3-difluorobenzamide], the pest or weed control at 50 µg/cm2 in assay [1] (setting [4]) and in assay [2] (setting [5]) was 50 to 100% each time. Moreover, the YFM entry in assay [3] (setting [6]) is recorded as “A (80–100)”.

For the compound `Cc1cc([C@@H]2[C@H](C(=O)Nc3ccc(Cl)c(C(=O)NCC(F)(F)F)c3)C2(Cl)Cl)cc(C(F)(F)F)c1F` (relative stereo) [F2015, cis-2-Chloro-5-(2,2-dichloro-3-(4-fluoro-3-methyl-5-(trifluoromethyl)phenyl)-cyclopropane-1-carboxamido)-N-(2,2,2-trifluoroethyl)benzamide], the pest or weed control at 50 µg/cm2 in assay [1] (setting [10]) and in assay [2] (setting [11]) was 50 to 100% in each case. Also, the YFM rating result in assay [3] (Yellow Fever Mosquito) is given as “A (80–100)”.

As to `O=C(Nc1ccc(F)c(NC(=O)C(F)F)c1F)c1cc(NC(=O)[C@H]2[C@H](c3cc(C(F)(F)F)cc(C(F)(F)F)c3)C2(Cl)Cl)ccc1Cl` (relative stereo) [F1802, trans-5-(3-(3,5-bis(Trifluoromethyl)phenyl)-2,2-dichlorocyclopropane-1-carboxamido)-2-chloro-N-(3-(2,2-difluoroacetamido)-2,4-difluorophenyl)benzamide], the pest or weed control at 50 µg/cm2 in assay [1] (setting [10]) and in assay [2] (setting [11]) was 50 to 100% throughout. Moreover, in assay [3] (Yellow Fever Mosquito), the YFM rating result is “A (80–100)”.

As to `O=C(Nc1ccc(F)cc1F)c1cc(NC(=O)[C@H]2[C@H](c3cc(Cl)c(F)c(Cl)c3)C2(Cl)Cl)ccc1Cl` (relative stereo) [F1172, trans-2-Chloro-5-(2,2-dichloro-3-(3,5-dichloro-4-fluorophenyl)cyclopropane-1-carboxamido)-N-(2,4-difluorophenyl)benzamide], the pest or weed control at 50 µg/cm2 in assay [1] (setting [7]) and in assay [2] (setting [8]) was 50 to 100% each time. Further, in assay [3] (setting [9]), the YFM entry was “A (80–100)”.

For `Cc1c(NC(=O)c2cc(NC(=O)[C@H]3[C@H](c4ccc(F)c(C(F)(F)F)c4)C3(Cl)Cl)ccc2Cl)cccc1NC(=O)C(F)(F)F` [F1451, 2-Chloro-5-((1R,3R)-2,2-dichloro-3-(4-fluoro-3-(trifluoromethyl)phenyl)cyclopropane-1-carboxamido)-N-(2-methyl-3-(2,2,2-trifluoroacetamido)phenyl)benzamide], the pest or weed control at 50 µg/cm2 in assay [1] (setting [4]) and in assay [2] (setting [5]) was 50 to 100% in each case. In addition, the YFM result in assay [3] (setting [6]) was “A (80–100)”.

Turning to `O=C(Nc1c(F)ccc(NC(=O)c2cc(NC(=O)[C@H]3[C@H](c4ccc(F)c(C(F)(F)F)c4)C3(Cl)Cl)ccc2Cl)c1F)c1ccco1` [F1300, N-(3-(2-Chloro-5-((1R,3R)-2,2-dichloro-3-(4-fluoro-3-(trifluoromethyl)phenyl)cyclopropane-1-carboxamido)benzamido)-2,6-difluorophenyl)furan-2-carboxamide], the pest or weed control at 50 µg/cm2 in assay [1] (setting [7]) and in assay [2] (setting [8]) was 50 to 100% throughout. The YFM result in assay [3] (setting [9]) is “A (80–100)”.

As for `CN(C(=O)C(F)F)c1c(F)ccc(NC(=O)c2cc(NC(=O)[C@H]3[C@H](c4ccc(Cl)c(Cl)c4)C3(Cl)Cl)ccc2Cl)c1F` [F1271, 2-Chloro-5-((1R,3R)-2,2-dichloro-3-(3,4-dichlorophenyl)cyclopropane-1-carboxamido)-N-(3-(2,2-difluoro-N-methylacetamido)-2,4-difluorophenyl)benzamide], the pest or weed control at 50 µg/cm2 in assay [1] (setting [7]) and in assay [2] (setting [8]) was 50 to 100% each time. The YFM result in assay [3] (setting [9]) is “A (80–100)”.
